What was measured:
naïve human CD4+ T cells = assay: FOXP3 induction in naïve CD4+ T cells, flow cytometry; assay type: cell-based
Protocol: Freshly isolated naïve (CD4+ CD25− CD127hi CD45RO−) T cells are cultured and treated with PDE3b and PDE4 inhibitors (middle panel) or rapamycin (positive control) (right panel), or are left untreated (left panel). CD25 and FOXP3 expression is measured by flow cytometry after 14 days of expansion.
Treatment of Tregs with small molecules that maintain high cAMP levels in T cells can be used to induce a regulatory phenotype. Small molecules that maintain high cAMP levels in T cells include agents that inhibit PDEs and agents that activate AC.

NOD mice = assay: Onset of diabetes in NOD mice, blood glucose monitoring; assay type: in vivo; conditions: 8-week old NOD mice, 65 mg/kg i.p., three times a week for five weeks, monotherapy
Protocol: Briefly, 8-week old NOD mice are injected (i.p.) with various doses of cilostamide (low: 0.65 mg/kg, medium: 6.5 mg/kg, high: 65 mg/kg), or vehicle only. Cilostamide is administered three times a week for five weeks. The onset of diabetes in treated mice is monitored by blood glucose measurements. Diabetes is diagnosed if the blood glucose readings are greater than 240 mg/dl for two days.
The increase in level of FoxP3+ cells at an early stage of the autoimmune attack can be used to prevent or delay the onset of autoimmune disease. Briefly, 8-week old NOD mice are treated with various doses (low: 0.65 mg/kg; medium: 6.5 mg/kg; high: 65 mg/kg) of cilostamide via intraperitoneal (i.p.) injection. Cilostamide is administered to the mice three times a week for five weeks.

## CN(C(=O)CCCOc1ccc2[nH]c(=O)ccc2c1)C1CCCCC1 [cilostamide]
naïve human CD4+ T cells; naïve CD4+ CD25− CD45RO− T cells, 14 days of expansion, vs non-treated controls
  FOXP3 induction: increased FOXP3 induction
naïve human CD4+ T cells; naïve CD4+ T cells, 14 days, vs rapamycin positive control
  ratio of FOXP3+ cells: comparable to that of the rapamycin-treated group
NOD mice
  onset of diabetes: delayed the onset of diabetes
